Measured values reported in patent US20050130978A1, “Novel crystal of quinoxalinedione derivative anhydride” (priority 2002, published 2005).

Columns and labels:
[1] = cited from earlier work
[2] = tested on: cerebral infarction; settings: focal cerebral ischemia model; Non-Patent References 1 and 2; cited from earlier work
[3] = Storage stability of the bulk; assay type: physicochemical; settings: should be refrigerated to ensure stability
[4] = Hygroscopicity test (time course weight changes under controlled relative humidity at 25° C.); assay type: physicochemical; design: Time course weight changes: unit not given here; settings: for Hygroscopicity: ˜0% to 93% RH, up to 7 days
Protocol: About 1 g each of the compound (I) and the compound (II) of anhydride compound A were weighed accurately in weighing bottles (seven) of known weight, then stored under the following conditions at 25° C., and time course weight changes were measured.
RH herein means relative humidity.

[5] = tested on: kainic acid neurotoxicity; settings: tautomer, salt, hydrate or solvate; Patent Reference 1; cited from earlier work
[6] = tested on: audiogenic seizure; settings: DBA/2 mouse; tautomer, salt, hydrate or solvate; Patent Reference 1; cited from earlier work
[7] = tested on: AMPA receptor; settings: tautomer, salt, hydrate or solvate; Patent Reference 1; cited from earlier work
[8] = ˜0% RH (silica gel), 25° C., Day 1
[9] = ˜0% RH (silica gel), 25° C., Day 2
[10] = ˜0% RH (silica gel), 25° C., Day 4
[11] = ˜0% RH (silica gel), 25° C., Day 7

Row | SMILES | Stability against humidity [4] | Time course weight changes ([4]; 33% RH, 25° C., Day 1) | Time course weight changes ([4]; 33% RH, 25° C., Day 2) | Time course weight changes ([4]; 33% RH, 25° C., Day 4) | Time course weight changes ([4]; 33% RH, 25° C., Day 7) | Time course weight changes ([4]; 51% RH, 25° C., Day 1) | Time course weight changes ([4]; 51% RH, 25° C., Day 2) | Time course weight changes ([4]; 51% RH, 25° C., Day 4) | Time course weight changes ([4]; 51% RH, 25° C., Day 7) | Time course weight changes ([4]; 63.5% RH, 25° C., Day 1) | Time course weight changes ([4]; 63.5% RH, 25° C., Day 2) | Time course weight changes ([4]; 63.5% RH, 25° C., Day 4) | Time course weight changes ([4]; 63.5% RH, 25° C., Day 7) | Time course weight changes ([4]; 75% RH, 25° C., Day 1) | Time course weight changes ([4]; 75% RH, 25° C., Day 2) | Time course weight changes ([4]; 75% RH, 25° C., Day 4) | Time course weight changes ([4]; 75% RH, 25° C., Day 7) | Time course weight changes ([4]; 84% RH, 25° C., Day 1) | Time course weight changes ([4]; 84% RH, 25° C., Day 2) | Time course weight changes ([4]; 84% RH, 25° C., Day 4) | also measured
1 | O=C(O)Cn1c(=O)c(=O)[nH]c2cc([N+](=O)[O-])c(-n3ccnc3)cc21 [1 hydrate of the compound A, [7-(1H-imidazol-1-yl)-6-nitro-2,3-dioxo-3,4-dihydroquinoxalin-1(2H)-yl]acetic acid] | – | – | – | – | – | – | – | – | – | – | – | – | – | – | – | – | – | – | – | – | Water-solubility ([1]; Non-Patent References 1 and 2): high water-solubility; Reducing effect on the volume of cerebral infarction [2]: excellent reducing effect; Storage stability (impurities) [3]: may increase impurities depending on storage condition
2 | O=C(O)Cn1c(=O)c(=O)[nH]c2cc([N+](=O)[O-])c(-n3ccnc3)cc21 [compound (I), [7-(1H-imidazol-1-yl)-6-nitro-2,3-dioxo-3,4-dihydroquinoxalin-1(2H)-yl]acetic acid] | excellent stability against humidity | 0.09 | 0.06 | 0.10 | 0.08 | 0.03 | 0.04 | 0.10 | 0.09 | 0.03 | 0.06 | 0.10 | 0.11 | 0.04 | 0.07 | 0.13 | 0.10 | 0.05 | 0.09 | 0.11 | Time course weight changes ([4]; 84% RH, 25° C., Day 7): 0.13; Time course weight changes ([4]; 93% RH, 25° C., Day 1): 0.09; Time course weight changes ([4]; 93% RH, 25° C., Day 2): 0.10; Time course weight changes ([4]; 93% RH, 25° C., Day 4): 0.15; Time course weight changes ([4]; 93% RH, 25° C., Day 7): 0.13; Time course weight changes [4, 8]: 0.03; Time course weight changes [4, 9]: −0.01; Time course weight changes [4, 10]: 0.02; Time course weight changes [4, 11]: 0.01; Hygroscopicity ([4]; 25° C.): stable under any relative humidity conditions almost without showing hygroscopicity
3 | O=C(O)Cn1c(=O)c(=O)[nH]c2cc([N+](=O)[O-])c(-n3ccnc3)cc21 [compound (II), [7-(1H-imidazol-1-yl)-6-nitro-2,3-dioxo-3,4-dihydroquinoxalin-1(2H)-yl]acetic acid] | unstable against humidity | 5.26 | 5.29 | 5.32 | 5.33 | 5.39 | 5.39 | 5.40 | 5.38 | 5.47 | 5.47 | 5.49 | 5.49 | 5.47 | 5.47 | 5.51 | 5.46 | 5.51 | 5.52 | 5.52 | Time course weight changes ([4]; 84% RH, 25° C., Day 7): 5.51; Time course weight changes ([4]; 93% RH, 25° C., Day 1): 5.52; Time course weight changes ([4]; 93% RH, 25° C., Day 2): 5.49; Time course weight changes ([4]; 93% RH, 25° C., Day 4): 5.54; Time course weight changes ([4]; 93% RH, 25° C., Day 7): 5.51; Absorbed water ([4]; after one day, at least 33% RH or more, 25° C.): 1 mol water per mol compound; Time course weight changes [4, 8]: 0.09; Time course weight changes [4, 9]: 0.08; Time course weight changes [4, 10]: 0.07; Time course weight changes [4, 11]: 0.04; Hygroscopicity ([4]; 25° C.): strong hygroscopicity
4 | O=C(O)Cn1c(=O)c(=O)[nH]c2cc([N+](=O)[O-])c(-n3ccnc3)cc21 [compound A, [7-(1H-imidazol-1-yl)-6-nitro-2,3-dioxo-3,4-dihydroquinoxalin-1(2H)-yl]acetic acid] | – | – | – | – | – | – | – | – | – | – | – | – | – | – | – | – | – | – | – | – | Inhibitory action against kainic acid neurotoxicity [5]: potent activities; Solubility ([1]; Patent Reference 1): excellent solubility; Anticonvulsant effect for audiogenic seizure [6]: potent activities; Affinity for the AMPA receptor [7]: high affinity
